Measured values from PubChem BioAssay AID1919015 (Molecular Pharmacology Branch, DTP, NCI, 2023).
Several values for one entry are separate records, joined by “and”; a condition that tells them apart may be missing. Equal entries are not always repeated.

System: OVCAR-5 complex spheroids with HUVEC/MSC, viability, % test/control
Assay: Anticancer human tumor OVCAR-5 cell line growth inhibition [AhR];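 note: spheroids exposed to compounds for 7 days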;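 for viability, T/C: 100% = DMSO vehicle control wells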
Details: for viability, T/C: stronger effect = lower value
In short: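 Agents were dosed in half-log steps down from roughly clinical Cmax, or from 10 microM where Cmax was unknown, alone and with AhR antagonists. Read-out: percent test/control growth of tumor spheroids containing HUVEC and MSC stromal cells.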

[1] = curve of first compound, second compound 0.1 µM
[2] = curve of first compound, second compound 0.316 µM
[3] = curve of first compound, second compound 1 µM
[4] = curve of first compound, second compound 3.16 µM
[5] = curve of first compound, second compound 10 µM
[6] = second compound 0.1 µM, first compound 0.0316 µM
[7] = second compound 0.1 µM, first compound 0.1 µM
[8] = second compound 0.1 µM, first compound 0.316 µM
[9] = second compound 0.1 µM, first compound 1 µM
[10] = second compound 0.1 µM, first compound 3.16 µM
[11] = second compound 0.1 µM, first compound 10 µM
[12] = second compound 0.316 µM, first compound 0.0316 µM
[13] = second compound 0.316 µM, first compound 0.1 µM
[14] = second compound 0.316 µM, first compound 0.316 µM
[15] = second compound 0.316 µM, first compound 1 µM
[16] = second compound 0.316 µM, first compound 3.16 µM
[17] = second compound 0.316 µM, first compound 10 µM
[18] = second compound 1 µM, first compound 0.0316 µM
[19] = second compound 1 µM, first compound 0.1 µM
[20] = second compound 1 µM, first compound 0.316 µM
[21] = second compound 1 µM, first compound 1 µM
[22] = second compound 1 µM, first compound 3.16 µM
[23] = second compound 1 µM, first compound 10 µM
[24] = second compound 3.16 µM, first compound 0.0316 µM
[25] = second compound 3.16 µM, first compound 0.1 µM
[26] = second compound 3.16 µM, first compound 0.316 µM
[27] = second compound 3.16 µM, first compound 1 µM
[28] = second compound 3.16 µM, first compound 3.16 µM
[29] = second compound 3.16 µM, first compound 10 µM
[30] = second compound 10 µM, first compound 0.0316 µM
[31] = second compound 10 µM, first compound 0.1 µM
[32] = second compound 10 µM, first compound 0.316 µM
[33] = second compound 10 µM, first compound 1 µM
[34] = second compound 10 µM, first compound 3.16 µM
[35] = second compound 10 µM, first compound 10 µM

Compound: CC(C)CC(NC(=O)C(Cc1ccccc1)NC(=O)c1cnccn1)B(O)O (configuration not stated) + Cc1ccccc1N=Nc1ccc(NC(=O)c2ccnn2C)c(C)c1
- IC50 [1]: 49.4 nM
- IC50 [2]: 48.2 nM
- IC50 [3]: 50 nM
- IC50 [4]: 48.2 nM
- IC50 [5]: 55.4 nM
- viability, T/C (second compound 0.1 µM, first compound 0.000949 µM): 101%
- viability, T/C (second compound 0.1 µM, first compound 0.003 µM): 105%
- viability, T/C (second compound 0.1 µM, first compound 0.00949 µM): 96.9%
- viability, T/C (second compound 0.1 µM, first compound 0.03 µM): 69%
- viability, T/C (second compound 0.1 µM, first compound 0.0949 µM): 25%
- viability, T/C (second compound 0.1 µM, first compound 0.3 µM): 19.3%
- viability, T/C (second compound 0.316 µM, first compound 0.000949 µM): 104%
- viability, T/C (second compound 0.316 µM, first compound 0.003 µM): 108%
- viability, T/C (second compound 0.316 µM, first compound 0.00949 µM): 98.7%
- viability, T/C (second compound 0.316 µM, first compound 0.03 µM): 67.1%
- viability, T/C (second compound 0.316 µM, first compound 0.0949 µM): 25.7%
- viability, T/C (second compound 0.316 µM, first compound 0.3 µM): 17.6%
- viability, T/C (second compound 1 µM, first compound 0.000949 µM): 108%
- viability, T/C (second compound 1 µM, first compound 0.003 µM): 112%
- viability, T/C (second compound 1 µM, first compound 0.00949 µM): 101%
- viability, T/C (second compound 1 µM, first compound 0.03 µM): 69.4%
- viability, T/C (second compound 1 µM, first compound 0.0949 µM): 25.5%
- viability, T/C (second compound 1 µM, first compound 0.3 µM): 19.6%
- viability, T/C (second compound 3.16 µM, first compound 0.000949 µM): 111%
- viability, T/C (second compound 3.16 µM, first compound 0.003 µM): 112%
- viability, T/C (second compound 3.16 µM, first compound 0.00949 µM): 105%
- viability, T/C (second compound 3.16 µM, first compound 0.03 µM): 66.1%
- viability, T/C (second compound 3.16 µM, first compound 0.0949 µM): 26.9%
- viability, T/C (second compound 3.16 µM, first compound 0.3 µM): 21.5%
- viability, T/C (second compound 10 µM, first compound 0.000949 µM): 98.9%
- viability, T/C (second compound 10 µM, first compound 0.003 µM): 105%
- viability, T/C (second compound 10 µM, first compound 0.00949 µM): 93.6%
- viability, T/C (second compound 10 µM, first compound 0.03 µM): 73.2%
- viability, T/C (second compound 10 µM, first compound 0.0949 µM): 29.3%
- viability, T/C (second compound 10 µM, first compound 0.3 µM): 23.5%

Compound: COc1cc(Nc2ncc3c(n2)-c2ccc(Cl)cc2C(c2c(F)cccc2OC)=NC3)ccc1C(=O)O
- viability, T/C (compound 0.0316 µM): 88% and 84.9% and 84.8%
- viability, T/C (compound 0.1 µM): 79.3% and 80.2% and 76.8%
- viability, T/C (compound 0.316 µM): 61.4% and 57.7% and 55.4%
- viability, T/C (compound 1 µM): 58.3% and 55.7% and 50.5%
- viability, T/C (compound 3.16 µM): 51.2% and 49.3% and 47%
- viability, T/C (compound 10 µM): 42.7% and 41.6% and 39.5%
- IC50 (curve of compound): 2920 nM and 1770 nM and 1250 nM

Compound: CC1(C)CCC(CN2CCN(c3ccc(C(=O)NS(=O)(=O)c4ccc(NCC5CCOCC5)c([N+](=O)[O-])c4)c(Oc4cnc5[nH]ccc5c4)c3)CC2)=C(c2ccc(Cl)cc2)C1 + Cc1ccccc1N=Nc1ccc(NC(=O)c2ccnn2C)c(C)c1
- IC50 [1]: > 10000 nM
- IC50 [2]: > 10000 nM
- IC50 [3]: > 10000 nM
- IC50 [4]: > 10000 nM
- IC50 [5]: > 10000 nM
- viability, T/C [6]: 102%
- viability, T/C [7]: 101%
- viability, T/C [8]: 102%
- viability, T/C [9]: 95.7%
- viability, T/C [10]: 99.2%
- viability, T/C [11]: 52.7%
- viability, T/C [12]: 102%
- viability, T/C [13]: 106%
- viability, T/C [14]: 106%
- viability, T/C [15]: 103%
- viability, T/C [16]: 105%
- viability, T/C [17]: 53%
- viability, T/C [18]: 102%
- viability, T/C [19]: 113%
- viability, T/C [20]: 107%
- viability, T/C [21]: 112%
- viability, T/C [22]: 104%
- viability, T/C [23]: 56.9%
- viability, T/C [24]: 103%
- viability, T/C [25]: 115%
- viability, T/C [26]: 108%
- viability, T/C [27]: 112%
- viability, T/C [28]: 109%
- viability, T/C [29]: 54.2%
- viability, T/C [30]: 109%
- viability, T/C [31]: 107%
- viability, T/C [32]: 105%
- viability, T/C [33]: 108%
- viability, T/C [34]: 105%
- viability, T/C [35]: 57.3%

Compound: COc1cccc2c1C(=O)c1c(O)c3c(c(O)c1C2=O)CC(O)(C(=O)CO)CC3OC1CC(N)C(O)C(C)O1 (configuration not stated) + CC(CO)NC(=O)c1cc(-c2ccc(Cl)cc2)nn(-c2cnn(C)c2)c1=O
- IC50 [1]: 267 nM
- IC50 [2]: 285 nM
- IC50 [3]: 347 nM
- IC50 [4]: 351 nM
- IC50 [5]: 326 nM
- viability, T/C [6]: 79.8%
- viability, T/C [7]: 62.8%
- viability, T/C [8]: 50%
- viability, T/C [9]: 23.5%
- viability, T/C [10]: 3.18%
- viability, T/C [11]: 0.94%
- viability, T/C [12]: 80%
- viability, T/C [13]: 63.9%
- viability, T/C [14]: 50.9%
- viability, T/C [15]: 23.3%
- viability, T/C [16]: 2.8%
- viability, T/C [17]: 0.91%
- viability, T/C [18]: 82.5%
- viability, T/C [19]: 71.5%
- viability, T/C [20]: 53.1%
- viability, T/C [21]: 23.8%
- viability, T/C [22]: 2.66%
- viability, T/C [23]: 0.86%
- viability, T/C [24]: 77%
- viability, T/C [25]: 70.1%
- viability, T/C [26]: 52.7%
- viability, T/C [27]: 22.9%
- viability, T/C [28]: 1.63%
- viability, T/C [29]: 1.01%
- viability, T/C [30]: 72.7%
- viability, T/C [31]: 76.2%
- viability, T/C [32]: 49.5%
- viability, T/C [33]: 15%
- viability, T/C [34]: 0.79%
- viability, T/C [35]: 1.12%
